# Test results as given in US12637464B2, “Tetracyclic compounds for treating brain disorders” (The Regents of the University of California, priority 2021, dated 2026).
# What was measured:
# Sprague Dawley rats = test: Rat forced swim test (FST); assay type: in vivo; conditions: FST 24 h after compound administration; ketamine as comparator
# Description: Rat Forced Swim Test (FST). This study was performed by Psychogenics (Paramus, NJ). Male Sprague Dawley rats were purchased from Envigo (Indianapolis, IN), and upon receipt, they were assigned unique identification numbers (tail marked) and group housed in ventilated cages with 3 rats per cage. All animals remained housed in groups of three for the remainder of the study. All rats were acclimated to the colony room for up to one week prior to dosing. During the period of acclimation, rats were examined and handled daily, and weighed to assure adequate health and suitability. The room temperature was maintained between 20° C. and 23° C. with a relative humidity of 30%-70%. Lab Rodent Diet 5001 (W.F. Fisher, Cat #11015) and water were provided ad libitum. […] All animals were carefully monitored to ensure their safety in the swim test and any animal unable to maintain a posture with its nose above water was immediately removed from the water and not used further in the study. […] This test lasted for 5 min and was video recorded. A blinded experimenter manually scored the videos for swimming, climbing, and immobility behavior. Scoring of the forced swim test was performed by trained technicians using a time sampling technique in which the animal in the video recorded test was viewed every 5 seconds and the behavior observed was noted (e.g., immobile, swimming, or climbing). […]
# PSYLI2 cells = test: PsychLight assays (agonist and antagonist mode); assay type: cell-based; conditions: FIG. 3C-3E; agonist mode concentration-response, antagonist mode 1 μM
# Description: PsychLight Assays. Psychlight assays were performed using a previously published method. Briefly, glass bottom 96-well plates were coated with 50 μg/mL of poly-D-lysine overnight at room temperature and then washed with Dulbecco's PBS. PSYLI2 cells were suspended in DMEM containing 10% FBS with 5% penicillin-streptomycin, plated at a density of 40,000 cells/well, and incubated (37° C., 5% CO2) for 24 h prior to each experiment. Immediately before an experiment, stock solutions of drugs in DMSO were diluted 1:100 in imaging media distributed across an empty 96-well plate (treatment plate) following a randomized plate map. The imaging media consisted of 1×HBSS containing […] and […]. […] Data were from 2 plates with 2-3 wells being analyzed per plate. […]
# Once imaging was complete, the images were exported, and analyzed using a custom Python script. […] The mask was generated by calculating the average fluorescence intensity for the entire image and using that value as a threshold. […] The % ΔF/F values for each well were calculated using the following equation: […]
# Once imaging was complete, the images were exported, and analyzed using a custom Python script. […] The mask was generated by calculating the average fluorescence intensity for the entire image and using that value as a threshold. […]
structure (smiles),measurement,setting,value
CCN(CC)C(=O)[C@@H]1C=C2c3cccc4ccn(c34)C[C@H]2N(C)C1 [(+)-JRT],antidepressant-like effects in rat FST,Sprague Dawley rats,antidepressant-like effects comparable to ketamine at substantially lower doses
same,hallucinogenic potential (psychLight),PSYLI2 cells,low hallucinogenic potential
